Measurements from patent US20090143279A1 (priority 2007, published 2009).
Like-named read-outs stand apart in the source and are kept apart here.

How the values were obtained:
[1] = test system: mitochondrial membrane potential; type: cell-based, mouse
[2] = test system: reactive oxygen species; type: cell-based, mouse
[3] = test system: OXPHOS gene expression; type: cell-based, mouse
[4] = test system: nuOXPHOS transcripts; type: cell-based, mouse
[5] = test system: mtOXPHOS transcripts; type: cell-based, mouse
[6] = test system: cytochrome c; type: cell-based, mouse
[7] = test system: C2C12 myotubes
[8] = test system: cellular dehydrogenase activity
[9] = composite Z-score vs mock-treated (DMSO) wells, Conc 20 μM
[10] = 20 μM, composite Z-score vs DMSO
[11] = composite Z-score vs DMSO wells, Conc 20 μM
[12] = 10.86 μM, composite Z-score vs DMSO
[13] = composite Z-score vs DMSO, Conc 20 μM
[14] = normalized composite Z-score vs mock-treated (DMSO) wells, Conc 20 μM

`CC(C)=CCOc1cc2oc(=O)ccc2cc1O` [prenyletin] was tested, and the ΔΨm [1, 9] was 0.772, the ROS [2, 9] was −0.090 and the GE-HTS [3, 9] was 0.113. It also gave a nucOX [4, 9] of −0.015, a mitoOX [5, 9] of 0.282 and a cyt c [6, 9] of 0.150. The Viability [7, 9] was 0.919 and the MTT [8, 9] was −1.166.

`CCCC(C(=O)OCCN(CC)CC)(c1ccccc1)c1ccccc1` [proadifen] was tested, and the ΔΨm [1] was −0.557, the ΔΨm [1, 10] was −0.654 and the ROS [2] was 0.616. For the same compound, the ROS [2, 10] was 0.678, the GE-HTS [3] was −0.364 and the GE-HTS [3, 10] was −0.377. The nucOX [4] was −0.414, the nucOX [4, 10] was −0.243 and the mitoOX [5] was −0.201. It also gave a mitoOX [5, 10] of −0.595, a cyt c [6] of 0.223 and a cyt c [6, 10] of −0.077. The Viability [7] was −0.388, the Viability [7, 10] was −1.715 and the MTT [8] was −1.220. It also gave an MTT [8, 10] of −1.808.

`CC(C)(Sc1cc(C(C)(C)C)c(O)c(C(C)(C)C)c1)Sc1cc(C(C)(C)C)c(O)c(C(C)(C)C)c1` [probucol] was tested, and the ΔΨm [1, 11] was −0.142, the ROS [2, 11] was 0.464 and the GE-HTS [3, 11] was −0.053. It also gave a nucOX [4, 11] of −0.002, a mitoOX [5, 11] of −0.136 and a cyt c [6] of −0.232. For the same compound, the cyt c [6, 11] was −0.180, the Viability [7, 11] was −0.586 and the MTT [8, 11] was −1.114.

With `CCCN(CCC)C(=O)C(CCC(=O)O)NC(=O)c1ccccc1` (stereo not shown) [proglumide] the ΔΨm [1, 10] was −0.910, the ROS [2, 10] was 2.083 and the GE-HTS [3, 10] was −0.541. It also gave a nucOX [4, 10] of −0.394, a mitoOX [5, 10] of −0.730 and a cyt c [6] of −0.001. It also gave a cyt c [6, 10] of −0.033, a Viability [7, 10] of −0.750 and an MTT [8, 10] of −1.254.

In the case of `CC(C)[N+](C)(CCOC(=O)C1c2ccccc2Oc2ccccc21)C(C)C` [propantheline], the ΔΨm [1, 12] is reported as −0.893, the ΔΨm [1, 10] is reported as −0.082 and the ROS [2, 12] is reported as 0.589. The ROS [2, 10] was 2.062, the GE-HTS [3, 12] was −0.301 and the GE-HTS [3, 10] was 0.458. For the same compound, the nucOX [4, 12] was 0.104, the nucOX [4, 10] was 0.254 and the mitoOX [5, 12] was −1.055. For the same compound, the mitoOX [5, 10] was 0.783, the cyt c [6, 12] was −0.615 and the cyt c [6, 10] was 0.379. For the same compound, the Viability [7, 12] was −0.361, the Viability [7, 10] was 0.142 and the MTT [8, 12] was −1.670. For the same compound, the MTT [8, 10] was −1.026.

With `CC[C@@H](C)C(=O)O[C@H]1[C@H](O)[C@H]2[C@@H](CN3C[C@@H](C)CC[C@H]3[C@@]2(C)O)[C@@H]2C[C@]34O[C@]5(O)[C@@H](OC(=O)[C@@](C)(O)CC)CC[C@@]3(C)[C@@H]5[C@@H](OC(C)=O)[C@@H](OC(C)=O)[C@H]4[C@@]21O` [protoveratrine A] the ΔΨm [1, 13] was 0.394, the ROS [2, 13] was −0.267 and the GE-HTS [3, 13] was −1.106. The nucOX [4, 13] was −0.978, the mitoOX [5, 13] was −1.108 and the cyt c [6, 13] was 1.155. The Viability [7, 13] was 0.243 and the MTT [8, 13] was −0.100.

`CC1=CCc2c(cc3oc(C)cc(=O)c3c2O)OC1` [ptaeroxylin] showed a ΔΨm [1, 9] of 0.238, an ROS [2, 9] of 0.259 and a GE-HTS [3, 9] of −0.853. The nucOX [4, 9] was −0.907, the mitoOX [5, 9] was −0.641 and the cyt c [6, 9] was 0.599. It also gave a Viability [7, 9] of −0.025 and an MTT [8, 9] of 0.160.

`CC1(O)/C=C\C=C(\CO)C2CC(C)(C)C2(O)CC1` (stereo not shown) [punctaporin B] gave a ΔΨm [1, 14] of −0.174, an ROS [2, 14] of 0.731 and a GE-HTS [3, 14] of −0.242. It also gave a nucOX [4, 14] of −0.049, a mitoOX [5, 14] of −0.555 and a cyt c [6, 14] of 0.175. For the same compound, the Viability [7, 14] was 0.554 and the MTT [8, 14] was −0.596.

Compound `CN1CCCN=C1/C=C/c1cccs1` [pyrantel pamoate] has a ΔΨm [1] of −2.829, an ROS [2] of 0.592 and a GE-HTS [3] of −0.468. The nucOX [4] was −0.500, the mitoOX [5] was −0.327 and the cyt c [6] was 0.640. It also gave a Viability [7] of −1.934 and an MTT [8] of −0.189.

Compound `CCc1nc(N)nc(N)c1-c1ccc(Cl)cc1` [pyrimethamine] has a ΔΨm [1, 11] of −0.696, an ROS [2, 11] of 0.329 and a GE-HTS [3, 11] of −0.657. For the same compound, the nucOX [4, 11] was −0.526, the mitoOX [5, 11] was −0.825 and the cyt c [6] was 1.048. The cyt c [6, 11] was −0.306, the Viability [7, 11] was 0.994 and the MTT [8, 11] was −1.810.

With `[O-][n+]1ccccc1[S-].[O-][n+]1ccccc1[S-].[Zn+2]` [pyrithione zinc] the “ΔΨm (composite Z-score vs DMSO)” value [1] was −3.529, the “ROS (composite Z-score vs DMSO)” value [2] was −2.405 and the “GE-HTS (composite Z-score vs DMSO)” value [3] was −3.250. The “nucOX (composite Z-score vs DMSO)” value [4] was −4.140, the “mitoOX (composite Z-score vs DMSO)” value [5] was −0.770 and the “cyt c (composite Z-score vs DMSO)” value [6] was −4.773. For the same compound, the “Viability (composite Z-score vs DMSO)” value [7] was −5.339 and the “MTT (composite Z-score vs DMSO)” value [8] was −6.284.

Work on `O=C(O)c1cccc(O)c1O` [pyrocatechuic acid] yielded a ΔΨm [1, 13] of −1.204, an ROS [2, 13] of 1.147 and a GE-HTS [3, 13] of −0.386. It also gave a nucOX [4, 13] of −0.324, a mitoOX [5, 13] of −0.367 and a cyt c [6, 13] of −0.018. The Viability [7, 13] was −1.076 and the MTT [8, 13] was −1.800.
